Measurements taken from US7902373B2 (Pfizer Inc, priority 2006, dated 2011).

biological target: human recombinant H-PGDS (Homo sapiens, UniProt O60760); test: Fluorescence intensity h-PGDS TBA enzyme assay; type: biochemical; conditions: Examples up to 622 (and 3a, 3b)
Sequence (O60760 whole entry): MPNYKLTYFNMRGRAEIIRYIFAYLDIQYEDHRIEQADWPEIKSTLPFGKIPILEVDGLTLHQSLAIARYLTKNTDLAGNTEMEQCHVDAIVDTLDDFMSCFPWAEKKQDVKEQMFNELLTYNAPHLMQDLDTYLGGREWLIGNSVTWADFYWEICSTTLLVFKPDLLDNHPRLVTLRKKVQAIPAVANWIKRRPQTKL

Row | IC50 [nM] | Structure (SMILES)
1 | 1.78 | C[C@@H]1Oc2ccc(CN3CCC(NC(=O)c4ccc(-c5cccc(F)c5)nc4)CC3)cc2[C@H]1C(=O)O [Example 458, (2S,3R)-5-{[4-({[6-(3-Fluorophenyl)pyridin-3-yl]carbonyl}amino)piperidin-1-yl]methyl}-2-methyl-2,3-dihydro-1-benzofuran-3-carboxylic acid]
2 | 0.721 | CCOc1ncccc1CN1CCC(NC(=O)c2ccc(-c3cccc(F)c3)nc2)CC1 [Example 459, N-{1-[(2-Ethoxypyridin-3-yl)methyl]piperidin-4-yl}-6-(3-fluorophenyl)nicotinamide]
3 | 1.28 | COc1ncccc1CN1CCC(NC(=O)c2ccc(-c3cccc(F)c3)nc2)CC1 [Example 460, 6-(3-Fluorophenyl)-N-{1-[(2-methoxypyridin-3-yl)methyl]piperidin-4-yl}nicotinamide]
4 | 0.239 | CC(C)Oc1ncccc1CN1CCC(NC(=O)c2ccc(-c3cccc(F)c3)nc2)CC1 [Example 461, 6-(3-Fluorophenyl)-N-{1-[(2-isopropoxypyridin-3-yl)methyl]piperidin-4-yl}nicotinamide]
5 | 0.264 | O=C(NC1CCN(Cc2cccnc2OCC2CC2)CC1)c1ccc(-c2cccc(F)c2)nc1 [Example 462, N-(1-{[2-(Cyclopropylmethoxy)pyridin-3-yl]methyl}piperidin-4-yl)-6-(3-fluorophenyl)nicotinamide]
6 | 0.385 | O=C(NC1CCN(Cc2cccc(CF)n2)CC1)c1ccc(-c2cccc(F)c2)nc1 [Example 463, N-(1-{[6-(Fluoromethyl)pyridin-2-yl]methyl}piperidin-4-yl)-6-(3-fluorophenyl)nicotinamide]
7 | 1.02 | CC(C)(O)c1cc(CN2CCC(NC(=O)c3ccc(-c4cccc(F)c4)nc3)CC2)ccn1 [Example 464, 6-(3-Fluorophenyl)-N-(1-{[2-(1-hydroxy-1-methylethyl)pyridin-4-yl]methyl}piperidin-4-yl)nicotinamide]
8 | 0.881 | O=C(NC1CCN(Cc2ccc3c(n2)NCCC3)CC1)c1ccc(-c2cccc(F)c2)nc1 [Example 465, 6-(3-Fluorophenyl)-N-[1-(5,6,7,8-tetrahydro-18-naphthyridin-2-ylmethyl)piperidin-4-yl]nicotinamide]
9 | 1.49 | CCOC(=O)Cn1cc(CN2CCC(NC(=O)c3ccc(-c4cccc(F)c4)nc3)CC2)cn1 [Example 466, Ethyl (4-{[4-({[6-(3-fluorophenyl)pyridin-3-yl]carbonyl}amino)piperidin-1-yl]methyl}-1H-pyrazol-1-yl)acetate]
10 | 0.257 | COc1cc(CN2CCC(NC(=O)c3ccc(-c4cccc(F)c4)nc3)CC2)c(F)cc1Cl [Example 467, N-[1-(4-Chloro-2-fluoro-5-methoxybenzyl)piperidin-4-yl]-6-(3-fluorophenyl)nicotinamide]
11 | 0.855 | O=C(NC1CCN(Cc2ccc(=O)[nH]n2)CC1)c1ccc(-c2cccc(F)c2)nc1 [Example 469, 6-(3-Fluorophenyl)-N-{1-[(6-oxo-1,6-dihydropyridazin-3-yl)methyl]piperidin-4-yl}nicotinamide]
12 | 4.14 | CC(C)c1nnc2ccc(CN3CCC(NC(=O)c4ccc(-c5cccc(F)c5)nc4)CC3)cn12 [Example 470, 6-(3-Fluorophenyl)-N-{1-[(3-isopropyl[1,2,4]triazolo[4,3-a]pyridin-6-yl)methyl]piperidin-4-yl}nicotinamide]
13 | 2.68 | COc1ccc2nccc(CN3CCC(NC(=O)c4ccc(-c5cccc(F)c5)nc4)CC3)c2c1 [Example 471, 6-(3-Fluorophenyl)-N-{1-[(6-methoxyquinolin-4-yl)methyl]piperidin-4-yl}nicotinamide]
14 | 0.491 | CC(C)(O)c1ccc(CN2CCC(NC(=O)c3ccc(-c4cccc(F)c4)nc3)CC2)cn1 [Example 472, 6-(3-Fluorophenyl)-N-(1-{[6-(1-hydroxy-1-methylethyl)pyridin-3-yl]methyl}piperidin-4-yl)nicotinamide]
15 | 2.36 | Cn1ccc(-c2ccc(CN3CCC(NC(=O)c4ccc(-c5cccc(F)c5)nc4)CC3)cc2)n1 [Example 473, 6-(3-Fluorophenyl)-N-{1-[4-(1-methyl-1H-pyrazol-3-yl)benzyl]piperidin-4-yl}nicotinamide]
16 | 1.44 | Cn1nccc1-c1ccc(CN2CCC(NC(=O)c3ccc(-c4cccc(F)c4)nc3)CC2)cc1 [Example 474, 6-(3-Fluorophenyl)-N-{1-[4-(1-methyl-1H-pyrazol-5-yl)benzyl]piperidin-4-yl}nicotinamide]
17 | 4.07 | O=C(NC1CCN(Cc2ccc(Br)cn2)CC1)c1ccc(-c2cccc(F)c2)nc1 [Example 475, N-{1-[(5-Bromopyridin-2-yl)methyl]piperidin-4-yl}-6-(3-fluorophenyl)nicotinamide]
18 | 0.935 | O=C(NC1CCN(Cc2ccc(CF)nc2)CC1)c1ccc(-c2cccc(F)c2)nc1 [Example 476, N-(1-{[6-(Fluoromethyl)pyridin-3-yl]methyl}piperidin-4-yl)-6-(3-fluorophenyl)nicotinamide]
19 | 4.04 | Cc1ccc(-c2nc(CN3CCC(NC(=O)c4ccc(-c5cccc(F)c5)nc4)CC3)n(C)n2)nn1 [Example 477, 6-(3-Fluorophenyl)-N-(1-{[1-methyl-3-(6-methylpyridazin-3-yl)-1H-1,2,4-triazol-5-yl]methyl}piperidin-4-yl)nicotinamide]

Row | IC50 [nM] | Structure (SMILES)
20 | 2.01 | Cn1nc(-c2ccccn2)nc1CN1CCC(NC(=O)c2ccc(-c3cccc(F)c3)nc2)CC1 [Example 478, 6-(3-Fluorophenyl)-N-{1-[(1-methyl-3-pyridin-2-yl-1H-1,2,4-triazol-5-yl)methyl]piperidin-4-yl}nicotinamide]
21 | 0.421 | Cc1nn(C)c(N2CCCOCC2)c1CN1CCC(NC(=O)c2ccc(-c3cccc(F)c3)nc2)CC1 [Example 479, N-(1-{[1,3-Dimethyl-5-(1,4-oxazepan-4-yl)-1H-pyrazol-4-yl]methyl}piperidin-4-yl)-6-(3-fluorophenyl)nicotinamide]
22 | 2.69 | Cn1nccc1-c1nc(CN2CCC(NC(=O)c3ccc(-c4cccc(F)c4)nc3)CC2)nn1C [Example 480, 6-(3-Fluorophenyl)-N-(1-{[1-methyl-5-(1-methyl-1H-pyrazol-5-yl)-1H-1,2,4-triazol-3-yl]methyl}piperidin-4-yl)nicotinamide]
23 | 2.45 | Cn1nc(-c2ncccn2)nc1CN1CCC(NC(=O)c2ccc(-c3cccc(F)c3)nc2)CC1 [Example 481, 6-(3-Fluorophenyl)-N-{1-[(1-methyl-3-pyrimidin-2-yl-1H-1,2,4-triazol-5-yl)methyl]piperidin-4-yl}nicotinamide]
24 | 2.39 | Cn1nc(CN2CCC(NC(=O)c3ccc(-c4cccc(F)c4)nc3)CC2)nc1-c1ccccc1F [Example 482, 6-(3-Fluorophenyl)-N-(1-{[5-(2-fluorophenyl)-1-methyl-1H-1,2,4-triazol-3-yl]methyl}piperidin-4-yl)nicotinamide]
25 | 3.58 | Cn1nc(-c2cccc(F)c2)nc1CN1CCC(NC(=O)c2ccc(-c3cccc(F)c3)nc2)CC1 [Example 483, 6-(3-Fluorophenyl)-N-(1-{[3-(3-fluorophenyl)-1-methyl-1H-1,2,4-triazol-5-yl]methyl}piperidin-4-yl)nicotinamide]
26 | 2.68 | Cn1nc(CN2CCC(NC(=O)c3ccc(-c4cccc(F)c4)nc3)CC2)nc1-c1ccc(F)cc1 [Example 484, 6-(3-Fluorophenyl)-N-(1-{[5-(4-fluorophenyl)-1-methyl-1H-1,2,4-triazol-3-yl]methyl}piperidin-4-yl)nicotinamide]
27 | 2.77 | Cn1nc(CN2CCC(NC(=O)c3ccc(-c4cccc(F)c4)nc3)CC2)nc1-c1ccccn1 [Example 485, 6-(3-Fluorophenyl)-N-{1-[(1-methyl-5-pyridin-2-yl-1H-1,2,4-triazol-3-yl)methyl]piperidin-4-yl}nicotinamide]
28 | 2.32 | O=C(NC1CCN(Cc2ccc(OC(F)F)c(OC3CC3)c2)CC1)c1ccc(-c2cccc(F)c2)nc1 [Example 486, N-{1-[3-(Cyclopropyloxy)-4-(difluoromethoxy)benzyl]piperidin-4-yl}-6-(3-fluorophenyl)nicotinamide]
29 | 0.372 | COc1c(C)cnc(CN2CCC(NC(=O)c3ccc(-c4cccc(F)c4)nc3)CC2)c1C [Example 487]
30 | 0.489 | O=C(NC1CCN(Cc2ccc(-c3ccn[nH]3)cc2)CC1)c1ccc(-c2cccc(F)c2)nc1 [Example 488, 6-(3-Fluorophenyl)-N-{1-[4-(1H-pyrazol-5-yl)benzyl]piperidin-4-yl}nicotinamide]
31 | 1.18 | Nc1ncncc1CN1CCC(NC(=O)c2ccc(-c3cccc(F)c3)nc2)CC1 [Example 489, N-{1-[(4-Aminopyrimidin-5-yl)methyl]piperidin-4-yl}-6-(3-fluorophenyl)nicotinamide]
32 | 0.601 | O=C(NC1CCN(Cc2cccc3c2OCC3)CC1)c1ccc(-c2cccc(F)c2)nc1 [Example 490, N-[1-(2,3-Dihydro-1-benzofuran-7-ylmethyl)piperidin-4-yl]-6-(3-fluorophenyl)nicotinamide]
33 | 2.4 | COc1ccc2nccc(CN3CCC(NC(=O)c4ccc(-c5cccc(F)c5)nc4)CC3)c2n1 [Example 491, 6-(3-Fluorophenyl)-N-{1-[(6-methoxy-1,5-naphthyridin-4-yl)methyl]piperidin-4-yl}nicotinamide]
34 | 0.285 | O=C(NC1CCN(Cc2ccc(-n3ccnn3)cc2)CC1)c1ccc(-c2cccc(F)c2)nc1 [Example 492, 6-(3-Fluorophenyl)-N-{1-[4-(1H-1,2,3-triazol-1-yl)benzyl]piperidin-4-yl}nicotinamide]
35 | 1.1 | O=C(NC1CCN(Cc2ccc(-n3nccn3)cc2)CC1)c1ccc(-c2cccc(F)c2)nc1 [Example 493, 6-(3-Fluorophenyl)-N-{1-[4-(2H-1,2,3-triazol-2-yl)benzyl]piperidin-4-yl}nicotinamide]
36 | 0.817 | COc1cc(CN2CCC(NC(=O)c3ccc(-c4cccc(F)c4)nc3)CC2)cc2c1OCCO2 [Example 494, 6-(3-Fluorophenyl)-N-{1-[(8-methoxy-2,3-dihydro-1,4-benzodioxin-6-yl)methyl]piperidin-4-yl}nicotinamide]
37 | 0.409 | Cn1nncc1CN1CCC(NC(=O)c2ccc(-c3cccc(F)c3)nc2)CC1 [Example 495, 6-(3-Fluorophenyl)-N-{1-[(1-methyl-1H-1,2,3-triazol-5-yl)methyl]piperidin-4-yl}nicotinamide]
